In US6288110A, “Pharmaceutical compositions comprising disulfiram” (Yeda Research and Development Co Ltd., priority 1998, dated 2001):
Entries after “also recorded” stand apart in the source; their conditions may differ.

Tests used:
[1] = test system: all cell types examined; experiment: DNA synthesis, all cell types examined, higher concentrations; assay type: cell-based; settings: >10 μM, all cell types examined (not shown)
Description: C6 rat glioma cells were plated in 96-well plates (Nunc, Denmark) (5000 cells per well) in DMEM with 5% FCS. After 6 hours the cells were rinsed and incubated for 48 hours in serum free medium. 5% FCS or growth factors were then added to the cells for 24 hours (triplicates). ^3 H-methyl-thymidine (5μCi/ml) (Rotem Ind. Ltd., Israel) was added to the cells for the last 14 hours. The cells were rinsed with 100 μl methanol for 10 minutes, followed by 200 μl 5% trichloroacetic acid, and then rinsed and lysed with 150 μl 0.3M NaOH. Radioactive thymidine incorporated into the DNA was determined for 1 min with 3 ml scintillation liquid (ULTIMA GOLD Packard) in a β-counter. DNA synthesis assays were performed in triplicates.
Bovine capillary endothelial cells (BCE) and bovine aortic BSMC were plated in 24-well plates (6000 cells per well) in 500 μl DMEM medium supplemented with 10% Colorado calf serum (CCS) (GIBCO, USA) and GPS. After 24 hours, medium was changed to starvation medium (2% CCS, 0.5% BSA, GPS) for 24 hours. ^3 H-methyl-thymidine (5 μCi/ml) was added for the last 6 hours. DNA synthesis assays were performed as described above, in triplicates. […]
Disulfiram was prepared in 0.1 mM stock solutions in DMSO. […] Inhibition was calculated as percentage of DNA synthesis of control.

[2] = test system: C6 rat glioma cells; experiment: TUNEL assay for apoptosis, C6 rat glioma cells; assay type: cell-based; settings: 5 μM, 6 hours
Description: Cells were cultured on microscope slides for 48 hours in presence of growth media as described above, until reaching 40-50% confluency. Disulfiram was then added to the cells for 6 hours or for 20 hours in the case of BALB/MK keratinocytes, fixed with 4% paraformaldehyde and washed three times with PBS. Apoptosis was analyzed by the in situ TUNEL staining carried out as described (Wride, 1994). Briefly, microscope slides were incubated for 15 min in 2×SSC buffer at 60° C., washed in DDW and incubated with 20 μg/ml proteinase K (Boehringer Mannheim) for 15 min at room temperature. After a wash with DDW, endogenous peroxidases were inactivated by incubating the slides with 2% H2 O2 in PBST (PBS with 0.05% Tween 20) for 10 min at room temperature. Slides were then incubated in TdT buffer (Boehringer Mannheim) for 5 min at room temperature, and a reaction mixture containing 5×TdT buffer and 1 μl biotin-21-dUTP (Clontech, 1 mM stock) and 8 units of the TdT enzyme (Boehringer Mannheim) in total volume of 50 μl was subsequently added. The reactions were carried out at 37° C. for 1.5 hr in a humid chamber. The slides were washed in 2×SSC, DDW and finally with PBS and covered with 10% skim milk in PBST for 15 min. […]

[3] = test system: C6 rat glioma tumor; experiment: Growth of C6 glioma tumors in nude mice; assay type: in vivo, CD1 nude male mice; C6 rat glioma cells; settings: 30 days; for Tumor weight / % inhibition (tumor growth): per os 3 times per week; for Tumor weight: n=8, mean ± SEM, control 1.37 ± 0.21
Description: C6 rat glioma cells (10^6) were injected subcutaneously into the back of the neck of CD1 nude male mice. After 3 days, 1 ml of aqueous solutions with or without 0.1-0.5 mM disulfiram (25-120 μg) was introduced per os to the mice using a feeding needle. Mice were orally fed three times per week. Tumors were removed 30 days following C6 cells injection, weighed, fixed in buffered formalin and histological sections were prepared. Each experimental group included 8 animals, and experiments were repeated twice.
Tumors from mice fed systemically 3 times a week with disulfiram were weighed 30 days following administration of C6 rat glioma cells to CD1 nude mice. […] Experiments were repeated twice (n=8).

[4] = test system: Lewis lung (D122) metastasis in the lungs; experiment: Lewis lung carcinoma metastasis, i.v. model; assay type: in vivo, C57/BL mice
Text: The Lewis lung carcinoma (3LL), which originated spontaneously in a C57/BL/6J (H-2^b) mouse, is a malignant tumor that produces spontaneous lung metastases. The metastatic clone D122, kindly provided by Prof. Lea Eisenbach (Weizmann Institute of Science, Rehovot, Israel), was used herein for tissue culture and for in vivo experiments. The cell cultures were maintained in DMEM supplemented with 10% heat-inactivated FCS, glutamine, antibiotics, sodium pyruvate and nonessential amino acids.
To distinguish between the effect on the migration of the cells from the main tumor and the development of a tumor from a metastatic foci, the i.v. model was used. D122 cells (5×10^5) were injected i.v. to the tail of C57/B1 male mice and after 24 days mice were killed and their lungs weighed. Treatment with disulfiram was started 3 days following the injection of D122 cells. […]
To distinguish between the effect on the migration of the cells from the main tumor and the development of a tumor from a metastatic foci, the i.v. metastastis model was used as described in section (f) of materials and Methods above. D122 cells were injected i.v. to the tail of C57/B1 male mice. Three days after, disulfiram was administered to the mice per os 3 times per week, at concentrations of 13-40 μg/mouse.

[5] = test system: superoxide dismutase; settings: in vivo; cited from earlier work
[6] = test system: interleukin-1; settings: U.S. Pat. No. 4,870,101; cited from earlier work
[7] = test system: bladder cancer; settings: N-butyl-N-(4-hydroxybutyl)nitrosamine or N-butyl-N-(3-carboxypropyl)nitrosamine, rats; cited from earlier work
[8] = test system: liver tumors; settings: dimethyl- or diethylnitrosamine, rats; cited from earlier work
[9] = test system: ifosfamide- and cyclophosphamide-induced urotoxicity; settings: administered simultaneously with ifosfamide or cyclophosphamide, mice; cited from earlier work
[10] = test system: murine leukemia; settings: 3 mg/mouse; cited from earlier work
[11] = test system: other tissues; experiment: Tissue damage on systemic administration; settings: 25-60 μg/mouse systemically

Structure (SMILES): CCN(CC)C(=S)SSC(=S)N(CC)CC [disulfiram, Bis(diethylthiocarbamoyl) disulfide]
- inhibition at higher concentrations [1]: became less inhibitory
- apoptosis by TUNEL method [2]: not labeled; also recorded: did not induce
- Tumor weight ([3]; 25 μg, p = 0.003): 0.59 ± 0.08 g
- % inhibition (tumor growth) ([3]; 25 μg/mouse, p = 0.003): 57%
- Tumor weight ([3]; 120 μg, p < 0.05): 0.84 ± 0.18 g
- % inhibition (tumor growth) ([3]; 120 μg/mouse, p < 0.05): 38%
- tumor size compared with water-fed control (in words) ([3]; fed 3 times a week, n=8): significantly smaller
- metastasis in the lungs compared with water-fed control (in words) ([4]; 13-40 μg, 3 times a week, 24 days, n=6, p=0.023-0.037): significantly smaller
- inhibition of the development of metastatic foci in the lungs ([4]; 13-40 μg/mouse per os 3 times per week): 83-95%
- decrease of metastasis to the lungs ([4]; 13-40 μg/mouse, 3 times a week, 24 days): 6-19 fold
- inhibition of superoxide dismutase [5]: inhibited superoxide dismutase
- inhibition of interleukin-1 release [6]: effective to inhibit the release of interleukin-1
- interference with induction of bladder cancer [7]: interfere with induction of cancer
- interference with induction of liver tumors [8]: interfere with induction of cancer
- protection against urotoxicity [9]: protect mice
- potentiation of nitrogen mustard (HN2) cytotoxicity [10]: potentiate
- damage in other tissues [11]: no evidence for damage in other tissues
